Assay results published in PubChem BioAssay (NCI).
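Five concentrations, 48 hours, 96-well plates. GI50 is the concentration that inhibits growth by half. TGI: concentration producing complete growth inhibition.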

What was measured:
Test in all cases: growth of human tumour cells (NCI), 48 h
A549 NSCLC = test system: A549 NSCLC
HL-60(TB) leukemia = test system: HL-60(TB) leukemia
HT29 colon = test system: HT29 colon
NCI-H226 lung = test system: NCI-H226 lung
SF-268 CNS = test system: SF-268 CNS
SK-MEL-5 melanoma = test system: SK-MEL-5 melanoma
SK-OV-3 ovarian = test system: SK-OV-3 ovarian
SR leukemia = test system: SR leukemia
T-47D breast = test system: T-47D breast
SNB-75 CNS = test system: SNB-75 CNS

## COc1ccc(N=C2C(=O)Nc3ccc(Br)cc32)cc1
A549 NSCLC
  TGI: > 100 µM
HL-60(TB) leukemia
  TGI: 42.7 µM
HT29 colon
  TGI: 58.1 µM
NCI-H226 lung
  TGI: 35.5 µM
SF-268 CNS
  TGI: 57.2 µM
SK-MEL-5 melanoma
  TGI: 23.3 µM
SK-OV-3 ovarian
  TGI: 75.3 µM
SR leukemia
  TGI: 28.6 µM
T-47D breast
  TGI: 74.6 µM

## CNC(=O)N(CCCCC(NC(C)=O)C(=O)NCc1ccccc1)Cc1ccccc1 (configuration not stated)
A549 NSCLC
  TGI: > 100 µM
HT29 colon
  TGI: > 100 µM
NCI-H226 lung
  TGI: > 100 µM
SF-268 CNS
  TGI: > 100 µM
SK-MEL-5 melanoma
  TGI: > 100 µM
SK-OV-3 ovarian
  TGI: > 100 µM
SNB-75 CNS
  TGI: > 100 µM

## NC(=O)N1N=C2c3ccccc3OC[C@H]2[C@@H]1c1ccccc1
A549 NSCLC
  TGI: > 100 µM
HL-60(TB) leukemia
  TGI: 61.7 µM
HT29 colon
  TGI: 67.6 µM
NCI-H226 lung
  TGI: 74.7 µM
SF-268 CNS
  TGI: > 80.4 µM
SK-OV-3 ovarian
  TGI: > 100 µM
SNB-75 CNS
  TGI: > 91.7 µM
SR leukemia
  TGI: 56 µM

## COc1cc2ccc(CC(=O)O)cc2cc1OC
A549 NSCLC
  TGI: > 100 µM
HL-60(TB) leukemia
  TGI: > 100 µM
HT29 colon
  TGI: > 100 µM
NCI-H226 lung
  TGI: > 100 µM
SF-268 CNS
  TGI: > 100 µM
SK-MEL-5 melanoma
  TGI: > 100 µM
SK-OV-3 ovarian
  TGI: > 100 µM
SNB-75 CNS
  TGI: > 100 µM
SR leukemia
  TGI: > 100 µM

## O=C(O)c1cc2ccc(Cl)cc2c(O)c1C1=CCCCC1
A549 NSCLC
  TGI: > 100 µM
HL-60(TB) leukemia
  TGI: > 100 µM
HT29 colon
  TGI: > 100 µM
NCI-H226 lung
  TGI: 68.3 µM
SF-268 CNS
  TGI: > 100 µM
SK-MEL-5 melanoma
  TGI: 81.9 µM
SK-OV-3 ovarian
  TGI: > 100 µM
SNB-75 CNS
  TGI: 34.7 µM
SR leukemia
  TGI: > 100 µM

## Cc1ncc([N+](=O)[O-])n1CCOc1ccc(C(=O)/C=C/c2ccc(C(F)(F)F)cc2)cc1
A549 NSCLC
  GI50: 2420 nM
  TGI: 8.5 µM
HL-60(TB) leukemia
  GI50: 2910 nM
  TGI: 11.4 µM
HT29 colon
  GI50: 1990 nM
  TGI: 4.23 µM
NCI-H226 lung
  GI50: 4.25 µM
  TGI: 20.4 µM
SF-268 CNS
  GI50: 2720 nM
  TGI: 8.49 µM
SK-MEL-5 melanoma
  GI50: 6.1 µM
  TGI: 20.3 µM
SK-OV-3 ovarian
  GI50: 4130 nM
  TGI: 15.3 µM
SNB-75 CNS
  GI50: 2570 nM
  TGI: 12.8 µM
SR leukemia
  GI50: 1970 nM
  TGI: 5.5 µM

## COc1ccc(C2C(C(=O)O)=C(COC(C)=O)Oc3cc4c(cc32)OCO4)c(OC)c1 (configuration not stated)
A549 NSCLC
  TGI: > 100 µM
HL-60(TB) leukemia
  TGI: > 100 µM
HT29 colon
  TGI: > 100 µM
SK-MEL-5 melanoma
  TGI: > 100 µM
SK-OV-3 ovarian
  TGI: > 100 µM
SNB-75 CNS
  TGI: > 100 µM

## Clc1ccc(/C=C/c2csnn2)cc1
A549 NSCLC
  TGI: > 100 µM
HL-60(TB) leukemia
  TGI: > 100 µM
HT29 colon
  TGI: > 100 µM
NCI-H226 lung
  TGI: > 100 µM
SF-268 CNS
  TGI: > 100 µM
SK-MEL-5 melanoma
  TGI: > 100 µM
SK-OV-3 ovarian
  TGI: > 100 µM
SNB-75 CNS
  TGI: > 100 µM

## Cc1cccc(NC(=O)CSc2nnc(-c3ccc(N=Cc4ccc(Cl)cc4)cc3)o2)c1
A549 NSCLC
  TGI: > 100 µM
HL-60(TB) leukemia
  TGI: > 100 µM
HT29 colon
  TGI: > 100 µM
NCI-H226 lung
  TGI: > 100 µM
SF-268 CNS
  TGI: > 100 µM
SK-MEL-5 melanoma
  TGI: > 100 µM
SK-OV-3 ovarian
  TGI: > 100 µM
SNB-75 CNS
  TGI: > 100 µM
SR leukemia
  TGI: > 100 µM

## Nc1cccc(C(=O)/C=C/c2ccccc2O)c1
A549 NSCLC
  TGI: > 100 µM
HL-60(TB) leukemia
  TGI: 46.9 µM
HT29 colon
  TGI: > 100 µM
NCI-H226 lung
  TGI: > 100 µM
SF-268 CNS
  TGI: > 100 µM
SK-MEL-5 melanoma
  TGI: > 100 µM
SK-OV-3 ovarian
  TGI: > 100 µM
SNB-75 CNS
  TGI: > 100 µM
SR leukemia
  TGI: > 100 µM

## CC1(C)O[C@@H](CCl)C[C@@H](C#N)O1
A549 NSCLC
  TGI: > 100 µM
HL-60(TB) leukemia
  TGI: > 100 µM
HT29 colon
  TGI: > 100 µM
NCI-H226 lung
  TGI: > 100 µM
SF-268 CNS
  TGI: > 100 µM
SK-MEL-5 melanoma
  TGI: > 100 µM
SK-OV-3 ovarian
  TGI: > 100 µM
SNB-75 CNS
  TGI: > 100 µM
SR leukemia
  TGI: > 100 µM

## NC(=O)C1C(=O)Oc2cccnc21 (configuration not stated)
A549 NSCLC
  TGI: > 100 µM
HT29 colon
  TGI: > 100 µM
NCI-H226 lung
  TGI: > 100 µM
SK-MEL-5 melanoma
  TGI: > 100 µM
SK-OV-3 ovarian
  TGI: > 100 µM
SNB-75 CNS
  TGI: > 100 µM

## Clc1cc(Cl)cc(Nc2ccc3c(OCCCN4CCOCC4)cccc3n2)c1
A549 NSCLC
  GI50: 2600 nM
  TGI: 6.87 µM
HL-60(TB) leukemia
  GI50: 2110 nM
  TGI: 6.34 µM
HT29 colon
  GI50: 1760 nM
  TGI: 3.39 µM
NCI-H226 lung
  GI50: 3.17 µM
  TGI: 10.7 µM
SF-268 CNS
  GI50: 3000 nM
  TGI: 9.63 µM
SK-MEL-5 melanoma
  GI50: 10.1 µM
  TGI: 23.2 µM
SK-OV-3 ovarian
  GI50: 2780 nM
  TGI: 8.55 µM
T-47D breast
  GI50: 4.91 µM
  TGI: 18.2 µM

## Cc1cn([C@H]2CN(O)C[C@@H](CO)O2)c(=O)[nH]c1=O
A549 NSCLC
  TGI: > 100 µM
HL-60(TB) leukemia
  TGI: > 100 µM
NCI-H226 lung
  TGI: > 100 µM
SF-268 CNS
  TGI: > 100 µM
SK-MEL-5 melanoma
  TGI: > 100 µM
SK-OV-3 ovarian
  TGI: > 100 µM
SNB-75 CNS
  TGI: > 100 µM
T-47D breast
  TGI: > 100 µM

## CN(C)CN(C)c1nc(N(C)C)nc(N(C)C)n1
A549 NSCLC
  TGI: > 100 µM
HL-60(TB) leukemia
  TGI: > 100 µM
HT29 colon
  TGI: > 100 µM
SF-268 CNS
  TGI: > 100 µM
SK-MEL-5 melanoma
  TGI: > 100 µM
SK-OV-3 ovarian
  TGI: > 100 µM
SNB-75 CNS
  TGI: > 100 µM
SR leukemia
  TGI: > 100 µM

## O=C(Cn1ccnc1[N+](=O)[O-])NCc1ccc(F)cc1
A549 NSCLC
  TGI: > 100 µM
HL-60(TB) leukemia
  TGI: > 100 µM
HT29 colon
  TGI: > 100 µM
NCI-H226 lung
  TGI: > 100 µM
SF-268 CNS
  TGI: > 100 µM
SK-MEL-5 melanoma
  TGI: > 100 µM
SK-OV-3 ovarian
  TGI: > 100 µM
SNB-75 CNS
  TGI: > 100 µM

## COc1cc2c(cc1OC)C(Sc1ccc(Cl)cc1)c1c(nc(N)c(C#N)c1N)O2 (configuration not stated)
A549 NSCLC
  GI50: 1750 nM
  TGI: 3.36 µM
HL-60(TB) leukemia
  GI50: 578 nM
  TGI: 3.73 µM
HT29 colon
  GI50: 1880 nM
  TGI: 4.12 µM
SF-268 CNS
  GI50: 1650 nM
  TGI: 3.17 µM
SK-MEL-5 melanoma
  GI50: 1.39 µM
  TGI: 2.71 µM
SK-OV-3 ovarian
  GI50: 1740 nM
  TGI: 3.12 µM
SNB-75 CNS
  GI50: 1140 nM
  TGI: 2.42 µM
SR leukemia
  GI50: 329 nM
  TGI: 1.66 µM
T-47D breast
  GI50: 1.29 µM
  TGI: 3.65 µM

## CCOc1ccccc1NC(=O)C1=C(C)NC(C)=C(C(=O)Nc2ccccc2OCC)C1c1ccc2c(c1)OCO2
A549 NSCLC
  TGI: > 100 µM
HL-60(TB) leukemia
  TGI: 45.3 µM
HT29 colon
  TGI: > 100 µM
NCI-H226 lung
  TGI: > 100 µM
SF-268 CNS
  TGI: > 100 µM
SK-MEL-5 melanoma
  TGI: 73.2 µM
SK-OV-3 ovarian
  TGI: > 100 µM
SNB-75 CNS
  TGI: 35.3 µM

## Cc1cc2nc3c(C(OC4OC(CO)C(O)C(O)C4O)C(O)CO)nn(-c4ccc(F)cc4)c3nc2cc1C (configuration not stated)
HT29 colon
  TGI: > 100 µM
SF-268 CNS
  TGI: > 100 µM
SK-OV-3 ovarian
  TGI: > 100 µM
SNB-75 CNS
  TGI: > 100 µM
SR leukemia
  TGI: > 100 µM

## CN(C)CCC(/C=C/c1ccccc1)=N\Nc1c(F)c(F)c(F)c(F)c1F
A549 NSCLC
  TGI: > 100 µM
HL-60(TB) leukemia
  TGI: 37.8 µM
HT29 colon
  TGI: > 100 µM
SF-268 CNS
  TGI: > 100 µM
SK-MEL-5 melanoma
  TGI: 28.8 µM
SK-OV-3 ovarian
  TGI: > 100 µM
SNB-75 CNS
  TGI: > 100 µM
SR leukemia
  TGI: > 100 µM

## O=C(N[C@H]1CC2(C=C(I)C(=O)C(I)=C2)OC1=O)OCc1ccccc1
A549 NSCLC
  TGI: > 100 µM
HL-60(TB) leukemia
  TGI: 21.4 µM
HT29 colon
  TGI: 35.8 µM
NCI-H226 lung
  TGI: 90.3 µM
SF-268 CNS
  TGI: 33.1 µM
SK-MEL-5 melanoma
  TGI: 74.6 µM
SK-OV-3 ovarian
  TGI: > 100 µM
SNB-75 CNS
  TGI: 38.2 µM

## COc1ccc(S(=O)(=O)NNS(C)(=O)=O)cc1OC
A549 NSCLC
  TGI: > 100 µM
HL-60(TB) leukemia
  TGI: > 100 µM
HT29 colon
  TGI: > 100 µM
NCI-H226 lung
  TGI: > 100 µM
SF-268 CNS
  TGI: > 100 µM
SK-MEL-5 melanoma
  TGI: > 100 µM
SNB-75 CNS
  TGI: > 100 µM
SR leukemia
  TGI: > 100 µM
